Measurements from ChEMBL document CHEMBL5346897, “smProdrugs: A repository of small molecule prodrugs” (Eur J Med Chem, 2023).
Values after ≈ are worked out from the molar mass of the structure shown.

What was measured:
[1] = Lipophilicity, logP of the compound; type: physicochemical; conditions: octanol/water
[2] = Solubility of the compound; type: physicochemical

CCOC(=O)OC(C)OC(=O)[C@@H]1N2C(=O)[C@@H](NC(=O)[C@H](N)c3ccccc3)[C@H]2SC1(C)C (some centres not stated) [BACAMPICILLIN]
logP [1]: 0.88 | solubility [2]: 123 µg/mL (≈ 264 µM)
